Assays:
SR-B1 = experiment: HFD-induced hepatic SR-B1 expression (14-week experiment); type: in vivo, mice; conditions: drinking KMUP-1
Protocol: (§1) In the 14-week experiment, mice were fed a HFD from week 1 to week 14. During the 3 month experiments, KMUP-1 HCl (2.5 mg) was added to 200 ml tap water and) and drink for 14 weeks or for the last 6 weeks on mice or obese mice fed HFD, separately. 5 mice had free access to drinking water from week 1 to week 14 (protective group) or from week 8 to week 14 (treatment group). Tap water was used to normalize mineral nutrition (Scheme A).
For the expression of SR-B1, HMGR, PPARγ and ROCK isolated liver tissues were cut into small chips and placed into an extraction buffer (Tris 10 mM, pH 7.0, NaCl 140 mM, PMSF 2 mM, DTT 5 mM, NP-40 0.5%, pepstatin A 0.05 mM and leupeptin 0.2 mM) for hepatic protein extraction, and centrifuged at 20,000 g for 30 minutes. The obtained protein extract was boiled to a ratio of 4:1 with a sample buffer (Tris 100 mM, pH 6.8, glycerol 20%, SDS 4% and bromophenol blue 0.2%). Electrophoresis was performed using 10% SDS-polyacrylamide gel (1 hour, 100 V, 40 mA, 20 μg protein per lane).
Separated proteins, after 3 repeated centrifugations to discard up-layer tissue lipid inpurity, were transferred to PVDF membranes treated with 5% fat-free milk powder to block the nonspecific IgGs (90 minutes, 100 V) and incubated for 1 hour with specific protein antibody. The blot was then incubated with anti-mouse or anti-goat IgG linked to alkaline phosphatase (1:1000) for 1 hour.

TNF-α = experiment: IHC staining of TNF-α in steatohepatitis liver; type: in vivo, mice; conditions: 2.5 mg/kg/day, 14 weeks (protection) and 6 weeks (treatment)
Protocol: as §1
(§2) For IHC of MMP-9/TNFα, HSL/p-HSL/ATGL and eNOS/IL-10, antigen retrieval of de-paraffinated sections was performed in Dako target retrieval solution, pH 9.0, in a vegetable steamer followed by the quenching of endogenous peroxidase activity with 3.0% H2O2 in methanol. Sections were then incubated with specific primary antibodies overnight at 4° C. in a humidified chamber. The antibodies used included rabbit polyclonal anti-eNOS (1:50 dilution) (Abcam, Cambridge, UK) or rabbit monoclonal anti-cleaved caspase-3 (1:50 dilution) (Cell Signaling, USA). The sections were then examined using a DAKO REAL EnVision™ Detection System kit (DAKO, Carpinteria, Calif.) and counterstained with hematoxylin. Images were obtained through a Nikon Eclipse TE200-S microscope.

ABCA1 = ABCA1 expression in liver of HFD mice (8 weeks); type: in vivo; conditions: animals treated with HFD
eNOS [1] = experiment: eNOS expression in HepG2 cells; type: cell-based
Protocol: HepG2 cells were treated with various concentrations of drugs for 24 hours. Reactions were terminated by washing twice with cold PBS, and the cells were then harvested, Proteins in the whole-cell lysate were homogenized in an ice-cold lysis buffer and a protease inhibitor (Sigma-Aldrich, St. Louis, Mo., U.S.A.). The homogenate was centrifuged at 90, 000 g for 15 minutes at 4° C., and supernatant was recovered as the total cellular protein. Cytosolic and membrane fractions of HepG2 cells were prepared using a. CNM (Cytosol Nuclear Membrane) compartment protein extraction kit (BioChain Institute Inc., Hayward, Calif., U.S.A.) according to the manufacturer's instructions. All of the fractionated protein solutions were stored at −80° C. until analysis. To measure the expression levels of proteins by drugs, the total cell protein was extracted after incubation with treatments for 24 hours and then Western blotting analysis was performed as described previously.

PPAR-γ = experiment: Table 3 PPAR-γ (% of control); type: cell-based; conditions: control group = 100 (%)
LDLR = experiment: Fluorescence staining of LDLRs in HepG2 cells; type: cell-based
Protocol: HepG2 cells were used to determine the cellular protein expression of LDLRs in the presence of exogenous LDL (500 μg/mL) Bodipy-493/503 ([…]) overnight at 4° C., followed by merger of obtained BODIPY- and LDL-images to analyze the location of LDLRs. All images were collected and analyzed by scanning with Nikon Eclipse TE200-S microscope (Tokyo, Japan).

HSL [2] = experiment: HSL immunoreactivity in HepG2 cells; type: cell-based
mice fed with HFD = experiment: HFD-fed mice, 8 weeks, gavage: serum/liver lipids, body weight, food intake; type: in vivo; conditions: HFD mice, 8 weeks
Protocol: In the 8 week experiment, C57BL/6J male mice (21-22 g), after fasting, were fed a HFD as a model of hyperlipidemia for 8 weeks. During the 2 month experiments, mice fasted for one night before the experiment was changed from a standard diet (STD) to a HFD and then the mice were randomly divided into 5 groups, including 2 control and 3 treatment groups. Six mice were used in each group. […] Liver from the protection group supplemented with KMUP-1 HCl (1 mg/kg/day) were used to determine the HMG CoA reductase expression.
Within 2 months, the 3 day food intake average for each animal was measured. The weight gain and plasma lipid levels of each group were determined and compared to the non-treatment control group. Mouse blood was collected during the daytime by cardiac puncture followed by centrifugation at 90 g (Benchtop Centrifuge, U.S.A.) to separate the serum, and frozen at −80° C., for biochemical analysis using a Hitachi Clinical Analyzer 7070 (Hitachi High-Technologies Co. Tokyo, Japan). Agents used in the assays were Obtained from Merck & Co. (Kenilworth, N.J., U.S.A.). Triglyceride (TG), total cholesterol, HDL cholesterol and LDL cholesterol in mouse serum were measured by methods used in the clinic. To measure the hepatic TG, isolated liver were cut into small chips.

HSL [3] = experiment: IHC staining of HSL in epididymal fat pads; type: in vivo, mice; conditions: protection, 2.5 mg/kg/day
Protocol: as §2

IL-10 = experiment: IHC staining of IL-10 in epididymal fat pads; type: in vivo, mice; conditions: protection, 2.5 mg/kg/day
Protocol: as §2

eNOS [4] = experiment: IHC staining of eNOS in epididymal fat pads; type: in vivo, mice; conditions: protection, 2.5 mg/kg/day
Protocol: as §2

Cn1c(=O)c2c(ncn2CCN2CCN(c3ccccc3Cl)CC2)n(C)c1=O [KMUP-1, 7-[2-[4-(2-chlorophenyl)piperazinyl]ethyl]-1,3-dimethyl xanthine]
HFD-induced hepatic SR-B1 expression (SR-B1): inhibit | TNF-α immunohistochemistry on fatty liver slices (TNF-α): inhibited partial | ABCA1 in liver (ABCA1): activated | expression of eNOS (eNOS [1]): concentration-dependently increased | PPAR-γ (PPAR-γ; 0.1 μM): 123.5 ± 17.3% | PPAR-γ (PPAR-γ; 1.0 μM): 135.6 ± 14.5% | PPAR-γ (PPAR-γ; 10 μM): 142.6 ± 15.4% | LDLR (green fluorescence) expression (LDLR; HepG2, 24 hours, KMUP-1 10^−6, 10^−5, 10^−4 M, simvastatin 10^−5 M): increased | LDLR fluorescence at high concentration (LDLR; HepG2, concentrations >10^−4 M, near the viability range): decline in fluoresence | HSL immunoreactivity (green fluorescence) (HSL [2]): increased | HDL cholesterol level (mice fed with HFD): significantly increased | HFD-induced hypercholesterolemia (mice fed with HFD): significantly improved | HDL cholesterol (mice fed with HFD; 2.5 mg/kg): 103.6 ± 4.2 mg/dL | LDL cholesterol (mice fed with HFD; 2.5 mg/kg): 14.2 ± 1.4 mg/dL | TG in serum (mice fed with HFD; 2.5 mg/kg): 74.5 ± 5.1 mg/dL | TG of liver (mice fed with HFD; 2.5 mg/kg): 28.4 ± 3.6 mg/dL | Tot. chol. (total cholesterol) (mice fed with HFD; 2.5 mg/kg): 133.0 ± 5.1 mg/dL | final BW (Body weight) (mice fed with HFD; 2.5 mg/kg): 25.7 ± 0.7 g | HDL cholesterol (mice fed with HFD; 5 mg/kg): 118.3 ± 5.7 mg/dL | LDL cholesterol (mice fed with HFD; 5 mg/kg): 14.2 ± 2.2 mg/dL | TG in serum (mice fed with HFD; 5 mg/kg): 72.7 ± 4.7 mg/dL | TG of liver (mice fed with HFD; 5 mg/kg): 26.12 ± 3.1 mg/dL | Tot. chol. (total cholesterol) (mice fed with HFD; 5 mg/kg): 125.5 ± 9.8 mg/dL | final BW (Body weight) (mice fed with HFD; 5 mg/kg): 24.3 ± 0.5 g | IHC staining of HSL in epididymal fat pads (HSL [3]): increased | IHC staining of IL-10 in epididymal fat pads (IL-10): increased | IHC staining of eNOS in epididymal fat pads (eNOS [4]): inhibited

From US20150359798A1, “PIPERAZINYL DERIVATIVE REDUCES HIGH-FAT DIET-INDUCED ACCUMULATION OF FAT IN THE LIVERS, […]” (priority 2011, published 2015)
